Test results taken from US20110039762A1, “TARGETED ANTIMICROBIAL MOIETIES” (C3 JIAN, INC., priority 2009, published 2011).
“Also recorded” adds a separate entry of the source.

tested on: microorganisms (e.g., bacteria, yeasts, fungi); experiment: Targeting peptide binding to target microorganisms (Table 3); settings: microorganism the targeting peptide binds; binding in aqueous buffers varied by peptide solubility, preferably 1x PBS

Substance	Target(s)
1T-73 (GWWEELLHETILSKFKITKALELPIQL; Peptide with targeting and/or antimicrobial activity) [Peptide 1T-73]	S. pneumoniae
1T-39 (FGFCVWMYQLLAGPPGPPA; Peptide with targeting and/or antimicrobial activity) [Peptide 1T-39]	S. mutans; also recorded: P. aeruginosa
1T-24 (EEAEEKLAEVSQAVKRLVR; Peptide with targeting and/or antimicrobial activity) [Peptide 1T-24]	P. aeruginosa
1T-217 (MLSNVLSRSVVSPNVDIPNSMVILSPLLISISNYH; Peptide with targeting and/or antimicrobial activity) [Peptide 1T-217]	F. nucleatum; also recorded: S. sanguinis
1T-104 (RAVAAHLQGRHHGHQVRRQRHGQR; Peptide with targeting and/or antimicrobial activity) [Peptide 1T-104]	S. mitis
1T-195 (AASGFTYCASNGVWHPY; Peptide with targeting and/or antimicrobial activity) [Peptide 1T-195]	S. mutans
1T-43 (DRCLSVLSWSPPKVSPLI; Peptide with targeting and/or antimicrobial activity) [Peptide 1T-43]	C. jeikium; also recorded: P. aeruginosa
1T-69 (ILSQEADRKKLF; Peptide with targeting and/or antimicrobial activity) [Peptide 1T-69]	S. mutans; also recorded: P. aeruginosa
1T-53 (SDILAEMFEKGELQTLVKDAAAKANA; Peptide with targeting and/or antimicrobial activity) [Peptide 1T-53]	P. aeruginosa
1T-112 (SDNDGKLILGTSQ; Peptide with targeting and/or antimicrobial activity) [Peptide 1T-112]	S. gordonii
1T-11 (RISE; Peptide with targeting and/or antimicrobial activity) [Peptide 1T-11]	S. mutans; also recorded: S. epidermidis; also recorded: P. aeruginosa
TT-307 (NGDKKAKEELDKWDEVIKELNIQF; Peptide with targeting and/or antimicrobial activity)	F. nucleatum
1T-87 (EAVGQDLVDAHHP; Peptide with targeting and/or antimicrobial activity) [Peptide 1T-87]	S. mitis; also recorded: S. mutans; also recorded: S. oralis
1T-81 (AIATGLDIVDGKFDGYLWA; Peptide with targeting and/or antimicrobial activity) [Peptide 1T-81]	S. pneumoniae
1T-272 (QLAPIDKQLKAVKKIAFYESESTAAKAVTVA; Peptide with targeting and/or antimicrobial activity) [Peptide 1T-272]	F. nucleatum; also recorded: S. mutans; also recorded: S. oralis; also recorded: S. sanguinis
1T-94 (DQVAHSGDMLVQARRRDS; Peptide with targeting and/or antimicrobial activity) [Peptide 1T-94]	S. mitis; also recorded: S. mutans; also recorded: S. oralis
1T-269 (PLYVAAVEKINTAKKH; Peptide with targeting and/or antimicrobial activity) [Peptide 1T-269]	F. nucleatum; also recorded: S. mutans; also recorded: S. oralis; also recorded: S. sanguinis
1T-63 (EPLILKELVRNLFLFCYARALR; Peptide with targeting and/or antimicrobial activity) [Peptide 1T-63]	S. aureus; also recorded: S. epidermidis; also recorded: C. jeikeium; also recorded: C. xerosis; also recorded: C. striatum; also recorded: P. aeruginosa
1T-264 (LEGKFYMAEDFDKTPECFKDYV; Peptide with targeting and/or antimicrobial activity) [Peptide 1T-264]	S. sanguinis
1T-28 (VSRDEAMEFIDREWTTLQPAGKSHA; Peptide with targeting and/or antimicrobial activity) [Peptide 1T-28]	P. aeruginosa
1T-113 (HGAHQRTGQRLHHHRGRTVSGCRQNPVAGVDPDEHR; Peptide with targeting and/or antimicrobial activity) [Peptide 1T-113]	S. mitis
1T-4 (LDAYGELVGGN; Peptide with targeting and/or antimicrobial activity) [Peptide 1T-4]	S. gordonii; also recorded: S. sanguinis; also recorded: S. oralis; also recorded: V. atypica; also recorded: L. casei; also recorded: S. mutans

same assay, conditions: microorganism(s) the targeting peptide binds; binding in aqueous buffers depending on peptide solubility, preferably 1x PBS

Substance	Target(s)
PF-132 (RPGDGAAEQGRSR; Peptide with targeting and/or antimicrobial activity)	S. epidermidis; also recorded: C. jeikeium
PF-152 (VGYFIWKDSHSRKG; Peptide with targeting and/or antimicrobial activity)	S. epidermidis and C. albicans and MRSA and E. faecalis and C. jeikeium
PF-384 (HISKERFEAY; Peptide with targeting and/or antimicrobial activity)	E. faecalis; also recorded: C. jeikeium; also recorded: C. jejuni
PF-163 (TSWLRAAERQEIGEPTKTFGEKTTSL; Peptide with targeting and/or antimicrobial activity)	S. epidermidis
PF-187 (EIQKIAKGVSGQVYGPSRQITISKKR; Peptide with targeting and/or antimicrobial activity)	S. epidermidis and M. luteus and E. coli and MRSA
PF-184 (LIADRHIRA; Peptide with targeting and/or antimicrobial activity)	S. epidermidis and M. luteus and E. coli and P. aeruginosa and C. albicans and MRSA and C. jeikeium
PF-189 (GNLTRSREAARATQ; Peptide with targeting and/or antimicrobial activity)	S. epidermidis and M. luteus and C. albicans and MRSA and E. faecalis and C. jejuni
PF-368 (MLKQTA; Peptide with targeting and/or antimicrobial activity)	C. jeikeium; also recorded: C. jejuni
MLTSRKKRLKKIVEEQNKKDESI [PF-336]	S. mutans; also recorded: E. coli
PF-202 (ALNRASLRLALGE; Peptide with targeting and/or antimicrobial activity)	S. epidermidis and M. luteus and E. coli and MRSA and E. faecalis and C. jeikeium and C. jejuni
PF-229 (DPILIQIGFTRFALRKAEAEKIEIQVEEGVPA; Peptide with targeting and/or antimicrobial activity)	S. epidermidis; also recorded: M. luteus; also recorded: P. aeruginosa; also recorded: A. baumannii
PF-146 (GCGKRRIITKSASRDTR; Peptide with targeting and/or antimicrobial activity)	S. epidermidis and M. luteus and P. aeruginosa and C. albicans and MRSA and C. jeikeium
PF-197 (CNALLRRGHPPSAL; Peptide with targeting and/or antimicrobial activity)	S. epidermidis; also recorded: M. luteus; also recorded: C. albicans; also recorded: E. faecalis; also recorded: C. jejuni
PF-256 (EYFKQVYVKNEKIYSFWICKDLSPKEAAKRAEDILVKLK; Peptide with targeting and/or antimicrobial activity)	S. epidermidis
PF-236 (KEIRTATVAELNAKRRLTSAEQALAEVS; Peptide with targeting and/or antimicrobial activity)	S. mutans; also recorded: S. epidermidis; also recorded: E. coli; also recorded: C. albicans; also recorded: S. pneumoniae; also recorded: E. faecalis

same assay, conditions: microorganism(s) the targeting peptide binds; peptide binding conducted in aqueous buffers varied by peptide solubility, preferably 1x PBS

Substance	Target(s)
PF-505 (GYTKDPGTGI; Peptide with targeting and/or antimicrobial activity)	S. mutans
PF-488 (YPNEQGHHKNNLKNIIIE; Peptide with targeting and/or antimicrobial activity)	S. mutans; also recorded: E. coli
PF-489 (KVDRVSTTITEKIK; Peptide with targeting and/or antimicrobial activity)	S. mutans

same assay, conditions: peptide binding in aqueous buffers varied by peptide solubility; preferably 1x PBS

Substance	Target(s) (microorganisms bound by the targeting peptide)
PF-C093 (EKLGTMV; Peptide with targeting and/or antimicrobial activity)	A. naeslundii; also recorded: F. nucleatum; also recorded: S. mutans
PF-717 (PQSEVTFENIYAPKANGGGLYGI; Peptide with targeting and/or antimicrobial activity)	E. coli
PF-C068 (LNLFASI; Peptide with targeting and/or antimicrobial activity)	A. naeslundii; also recorded: F. nucleatum; also recorded: S. mutans
PF-673 (VRRLRM; Peptide with targeting and/or antimicrobial activity)	S. mutans; also recorded: E. coli
PF-782 (TGPRRGIDLTSNRALSEVLDEGLELNSRK; Peptide with targeting and/or antimicrobial activity)	Mycobacteria spp.
PF-C063 (SHFRKGD; Peptide with targeting and/or antimicrobial activity)	A. naeslundii; also recorded: F. nucleatum; also recorded: S. mutans
